The values below come from patent US20220098203A1 (priority 2018, published 2022).

Where two headings read alike, the source gives them in different places. Where only a bound is given, the exact number is not on record here.

One experiment has as its system HCT116 MTAP-/-. As to the kind of experiment: Inhibition of cellular proliferation (Cell Titer Glo), HCT116 MTAP-/-. It is filed as cell-based, human. As to conditions: 4 days, read-out: 4 Day Relative Growth Inhibition (MTAP −/−). The method, boiled down:
(§1)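 Isogenic HCT116 MTAP+/+ and MTAP−/− cells were plated, treated with MAT2A inhibitor after 24 h, and incubated 4 days at 37 °C. Proliferation was read by CellTiter-Glo ATP luminescence, blank-subtracted and normalized to 0.2% DMSO control.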

The next experiment deals with HCT116 MTAP+/+. Put plainly: Inhibition of cellular proliferation (Cell Titer Glo), HCT116 MTAP+/+. It is filed as cell-based. To be noted: Homo sapiens, HCT-116, 96 h, Table 5a, 4 days, read-out: 4 Day Relative Growth Inhibition (MTAP +/+). Summed up: as §1
A general note: In ATP-based viability assays light output follows the ATP content of the culture.

Experiment [1] concerns SAM in HCT116 MTAP-deleted cells. Put plainly: Cellular assay of target engagement (SAM), LC-MS/MS. As to conditions: 72 h, read-out: Cell 72 h SAM Inhibition (MTAP −/−). It is filed as cell-based, human. Summed up:
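HCT116 cells with MTAP deleted were treated with compound for 72 h at 37°C/5% CO2. After quenching lysis in cold 80% methanol with 1 M acetic acid, SAM was quantified by LC-MS/MS against a d3-SAM internal standard.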

Another experiment concerns the target T1, MAT2A homodimer (Homo sapiens, UniProt P31153).
T1 construct: inferred from the Ni sepharose purification and imidazole elution; made in house; host or cells: SF9 insect cells, recombinant baculovirus (Bac to Bac, pFASTBAC1)
Put plainly: MAT2A biochemical assay (liberated phosphate, PiColorLock Gold). As to conditions: Table 5a; MAT2A biochemical assay; read-out: Enzyme Inhibition. Summed up: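 Baculovirus/Sf9-expressed, Ni-purified MAT2A homodimer preincubated with compound 60 min at 25 °C, then reacted 60 min at 25 °C with substrate mix of 500 μM ATP and 400 μM L-methionine, pH 7.0 (mix, not final levels). Phosphate released with SAM measured by PiColorLock Gold against phosphate standard curve.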

Setting [2] is: Homo sapiens, HCT-116, 96 h, Table 5a.
[3] abbreviates: Homo sapiens, HCT-116, Table 5a.
Where [4] appears, read: Table 6, select pairs of compounds.

T1 sequence (P31153 whole entry): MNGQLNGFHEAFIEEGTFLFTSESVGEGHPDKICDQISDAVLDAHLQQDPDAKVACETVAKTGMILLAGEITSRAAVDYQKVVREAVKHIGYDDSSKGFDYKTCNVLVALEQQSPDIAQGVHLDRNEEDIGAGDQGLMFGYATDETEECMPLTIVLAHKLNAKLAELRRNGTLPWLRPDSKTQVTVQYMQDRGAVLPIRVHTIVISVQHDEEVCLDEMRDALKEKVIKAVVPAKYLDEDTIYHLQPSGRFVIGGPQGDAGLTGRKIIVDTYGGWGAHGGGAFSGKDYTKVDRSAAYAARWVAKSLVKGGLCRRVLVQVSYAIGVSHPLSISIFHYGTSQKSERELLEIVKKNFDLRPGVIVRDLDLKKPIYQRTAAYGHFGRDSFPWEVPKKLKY

On to `COc1ccc(N2Cc3cnc(NCC(F)(F)F)nc3N(c3ccc(C(F)(F)F)cc3)C2=O)cc1` [Example 250, 3-(4-methoxyphenyl)-7-((2,2,2-trifluoroethyl)amino)-1-(4-(trifluoromethyl)phenyl)-3,4-dihydropyrimido[4,5-d]pyrimidin-2(1H)-one], for which the IC50 is over 1000 nM in the experiment with HCT116 MTAP-/- (setting [2]), over 1000 nM in the experiment on HCT116 MTAP+/+, 100 to 1000 nM in experiment [1] (setting [3]) and 100 to 1000 nM at MAT2A homodimer.

For the molecule `COc1ccc(N2Cc3cnc(NCC(F)(F)F)nc3N(c3ccc(Cl)cc3)C2=O)cc1` [Example 252, 1-(4-chlorophenyl)-3-(4-methoxyphenyl)-7-((2,2,2-trifluoroethyl)amino)-3,4-dihydropyrimido[4,5-d]pyrimidin-2(1H)-one], the IC50 in the experiment with HCT116 MTAP-/- (setting [2]) is over 1000 nM; in the experiment on HCT116 MTAP+/+ it was over 1000 nM; in experiment [1] (setting [3]), 100 to 1000 nM; at MAT2A homodimer, 100 to 1000 nM.

In the case of `COc1ccc(N2Cc3cnc(NCC(F)(F)F)nc3N(c3ccc(OC)cc3)C2=O)cc1` [Example 255, 1,3-bis(4-methoxyphenyl)-7-((2,2,2-trifluoroethyl)amino)-3,4-dihydropyrimido[4,5-d]pyrimidin-2(1H)-one], the IC50 in the experiment with HCT116 MTAP-/- (setting [2]) is 100 to 1000 nM; with HCT116 MTAP+/+ it was over 1000 nM; in experiment [1] (setting [3]), 100 to 1000 nM; at MAT2A homodimer, under 100 nM.

For the molecule `COc1ccc(N2Cc3cnc(NCC(F)(F)F)nc3N(c3ccc(OC)nc3)C2=O)cc1` [Example 261], the IC50 is over 1000 nM in the experiment on HCT116 MTAP-/- (setting [2]), over 1000 nM in the experiment with HCT116 MTAP+/+, 100 to 1000 nM in experiment [1] (setting [3]) and 100 to 1000 nM at MAT2A homodimer.

Take `Cn1cc2cc(N3Cc4ccc(NCC(F)(F)F)nc4N(c4ccc(OC(F)F)cc4)C3=O)ccc2n1` [Example 264, 1-(4-(difluoromethoxy)phenyl)-3-(2-methyl-2H-indazol-5-yl)-7-((2,2,2-trifluoroethyl)amino)-3,4-dihydropyrido[2,3-d]pyrimidin-2(1H)-one]: the IC50 in the experiment on HCT116 MTAP-/- (setting [2]) is under 100 nM; with HCT116 MTAP-/- (setting [4]), under 100 nM; with HCT116 MTAP+/+, over 1000 nM; in experiment [1] (setting [3]) it was under 100 nM; in experiment [1] (setting [4]), under 100 nM; at MAT2A homodimer it was under 100 nM.

For the molecule `Cn1cc2cc(N3Cc4cnc(NCC(F)(F)F)cc4N(c4ccc(OC(F)F)cc4)C3=O)ccc2n1` [Example 268], the IC50 in the experiment on HCT116 MTAP-/- (setting [2]) was over 1000 nM; in the experiment with HCT116 MTAP+/+ it was over 1000 nM; in experiment [1] (setting [3]) it was 100 to 1000 nM; at MAT2A homodimer, under 100 nM.

Consider `CCNc1ccc2c(n1)N(c1ccc(OC(F)F)cc1)C(=O)N(c1ccc3nn(C)cc3c1)C2` [Example 269], for which the IC50 in the experiment on HCT116 MTAP-/- (setting [2]) is 100 to 1000 nM; with HCT116 MTAP-/- (setting [4]) it was 100 to 1000 nM; in the experiment on HCT116 MTAP+/+, over 1000 nM; in experiment [1] (setting [3]), 100 to 1000 nM; in experiment [1] (setting [4]), 100 to 1000 nM; on MAT2A homodimer it was under 100 nM.

With `Cn1cc2cc(N3Cc4ccc(OCC(F)(F)F)nc4N(c4ccc(OC(F)F)cc4)C3=O)ccc2n1` [Example 270], the IC50 in the experiment with HCT116 MTAP-/- (setting [2]) was 100 to 1000 nM; with HCT116 MTAP+/+, over 1000 nM; in experiment [1] (setting [3]), under 100 nM; at MAT2A homodimer, under 100 nM.

As to `Cn1cnc2ccc(N3Cc4ccc(NCC(F)(F)F)nc4N(c4ccc(OC(F)F)cc4)C3=O)cc21` [Example 271], the IC50 (with HCT116 MTAP-/- (setting [2]); in the experiment with HCT116 MTAP-/- (setting [4]); in the experiment on HCT116 MTAP+/+; in experiment [1] (setting [3]); in experiment [1] (setting [4]); at MAT2A homodimer) was under 100 nM throughout.

On to `CCOc1ccc2c(n1)N(c1ccc(OC(F)F)cc1)C(=O)N(c1ccc3ncn(C)c3c1)C2` [Example 272], for which the IC50 in the experiment with HCT116 MTAP-/- (setting [2]) was 100 to 1000 nM; in the experiment on HCT116 MTAP+/+, over 1000 nM; in experiment [1] (setting [3]) it was under 100 nM; on MAT2A homodimer, under 100 nM.

Regarding `Cn1cnc2ccc(N3Cc4ccc(OCC(F)(F)F)nc4N(c4ccc(OC(F)F)cc4)C3=O)cc21` [Example 273], the IC50 in the experiment with HCT116 MTAP-/- (setting [2]) is 100 to 1000 nM; in the experiment with HCT116 MTAP+/+, over 1000 nM; in experiment [1] (setting [3]) it was 100 to 1000 nM; at MAT2A homodimer, under 100 nM.

As for `CCNc1ccc2c(n1)N(c1ccc(OC(F)F)cc1)C(=O)N(c1ccc3ncn(C)c3c1)C2` [Example 274], the IC50 with HCT116 MTAP-/- (setting [2]) is under 100 nM; with HCT116 MTAP-/- (setting [4]), under 100 nM; in the experiment with HCT116 MTAP+/+ it was over 1000 nM; in experiment [1] (setting [3]) it was under 100 nM; in experiment [1] (setting [4]) it was under 100 nM; at MAT2A homodimer, under 100 nM.

As to `CCOc1ccc2c(n1)N(c1ccc(OC(F)F)nc1)C(=O)N(c1ccc3nn(C)cc3c1)C2` [Example 275], the IC50 in the experiment on HCT116 MTAP-/- (setting [2]) is 100 to 1000 nM; in the experiment on HCT116 MTAP+/+, 100 to 1000 nM; in experiment [1] (setting [3]) it was 100 to 1000 nM; at MAT2A homodimer, under 100 nM.

With `CCOc1ccc2c(n1)N(c1ccc(CF)nc1)C(=O)N(c1ccc3nn(C)cc3c1)C2` [Example 282, 7-ethoxy-1-(6-(fluoromethyl)pyridin-3-yl)-3-(2-methyl-2H-indazol-5-yl)-3,4-dihydropyrido[2,3-d]pyrimidin-2(1H)-one], the IC50 in the experiment with HCT116 MTAP-/- (setting [2]) was under 100 nM; in the experiment on HCT116 MTAP+/+, over 1000 nM; in experiment [1] (setting [3]) it was under 100 nM; at MAT2A homodimer it was under 100 nM.

In the case of `Cn1cc2cc(N3Cc4ccc(OCC(F)F)nc4N(c4ccc5ocnc5c4)C3=O)ccc2n1` [Example 283, 1-(benzo[d]oxazol-5-yl)-7-(2,2-difluoroethoxy)-3-(2-methyl-2H-indazol-5-yl)-3,4-dihydropyrido[2,3-d]pyrimidin-2(1H)-one], the IC50 in the experiment with HCT116 MTAP-/- (setting [2]) is 100 to 1000 nM; with HCT116 MTAP+/+, 100 to 1000 nM; in experiment [1] (setting [3]) it was 100 to 1000 nM; at MAT2A homodimer, under 100 nM.

Regarding `Cn1cc2cc(N3Cc4cc(F)c(OCC(F)F)cc4N(c4ccc(OC(F)F)cc4)C3=O)ccc2n1` [Example 285, 7-(2,2-difluoroethoxy)-1-(4-(difluoromethoxy)phenyl)-6-fluoro-3-(2-methyl-2H-indazol-5-yl)-3,4-dihydroquinazolin-2(1H)-one], the IC50 in the experiment with HCT116 MTAP-/- (setting [2]) is 100 to 1000 nM; with HCT116 MTAP+/+, over 1000 nM; in experiment [1] (setting [3]), 100 to 1000 nM; at MAT2A homodimer, under 100 nM.

In the case of `CCOc1ccc2c(c1)N(c1ccc(OC(F)F)cc1)C(=O)N(c1ccc3nn(C)cc3c1)C2` [Example 287, 1-[4-(difluoromethoxy)phenyl]-7-ethoxy-3-(2-methyl-2H-indazol-5-yl)-1,2,3,4-tetrahydroquinazolin-2-one], the IC50 is 100 to 1000 nM with HCT116 MTAP-/- (setting [2]), 100 to 1000 nM in the experiment on HCT116 MTAP+/+, 100 to 1000 nM in experiment [1] (setting [3]) and under 100 nM at MAT2A homodimer.

With `Cn1cc2cc(N3Cc4ccc(NCC(F)(F)F)cc4N(c4ccc(OC(F)F)cc4)C3=O)ccc2n1` [Example 288], the IC50 in the experiment with HCT116 MTAP-/- (setting [2]) is 100 to 1000 nM; with HCT116 MTAP+/+, over 1000 nM; in experiment [1] (setting [3]), 100 to 1000 nM; on MAT2A homodimer, under 100 nM.

Turning to `CCOc1cnc2c(c1)N(c1ccc(OC(F)F)cc1)C(=O)N(c1ccc(OC)cc1)C2` [Example 289, 1-(4-(difluoromethoxy)phenyl)-7-ethoxy-3-(4-methoxyphenyl)-3,4-dihydropyrido[3,2-d]pyrimidin-2(1H)-one], the IC50 is over 1000 nM with HCT116 MTAP-/- (setting [2]), over 1000 nM in the experiment with HCT116 MTAP+/+, over 1000 nM in experiment [1] (setting [3]) and 100 to 1000 nM on MAT2A homodimer.

With `CCOc1cnc2c(c1)N(c1ccc(OC(F)F)cc1)C(=O)N(c1ccc3nn(C)cc3c1)C2` [Example 290], the IC50 in the experiment on HCT116 MTAP-/- (setting [2]) is 100 to 1000 nM; in the experiment on HCT116 MTAP+/+, over 1000 nM; in experiment [1] (setting [3]) it was 100 to 1000 nM; at MAT2A homodimer it was under 100 nM.

For `CCOc1cnc2c(c1)N(c1ccc(Cl)cc1)C(=O)N(c1ccc3nn(C)cc3c1)C2` [Example 291], the IC50 with HCT116 MTAP-/- (setting [2]) is over 1000 nM; in the experiment on HCT116 MTAP+/+, over 1000 nM; in experiment [1] (setting [3]), 100 to 1000 nM; at MAT2A homodimer it was 100 to 1000 nM.

`CCCc1ccc2c(n1)N(c1ccc(OC)cc1)C(=O)N(c1ccc3nn(C)cc3c1)C2` [Example 294, 1-(4-methoxyphenyl)-3-(2-methyl-2H-indazol-5-yl)-7-propyl-3,4-dihydropyrido[2,3-d]pyrimidin-2(1H)-one]: the IC50 in the experiment with HCT116 MTAP-/- (setting [2]) is under 100 nM; in the experiment with HCT116 MTAP+/+, over 1000 nM; in experiment [1] (setting [3]), under 100 nM; on MAT2A homodimer, under 100 nM.

`Cn1cc2cc(N3Cc4ccc(OCC(F)F)nc4N(c4ccc(O)cc4)C3=O)ccc2n1` [Example 295, 7-(2,2-difluoroethoxy)-1-(4-hydroxyphenyl)-3-(2-methyl-2H-indazol-5-yl)-3,4-dihydropyrido[2,3-d]pyrimidin-2(1H)-one]: the IC50 in the experiment with HCT116 MTAP-/- (setting [2]) was 100 to 1000 nM; in the experiment on HCT116 MTAP+/+ it was over 1000 nM; in experiment [1] (setting [3]), under 100 nM; at MAT2A homodimer, under 100 nM.

Turning to `[2H]C([2H])([2H])Oc1ccc(N2C(=O)N(c3ccc4nc(C)n(C)c4c3)Cc3ccc(OCC(F)F)nc32)cc1` [Example 401, 7-(2,2-difluoroethoxy)-3-(1,2-dimethyl-1H-benzo[d]imidazol-6-yl)-1-(4-(methoxy-d3)phenyl)-3,4-dihydropyrido[2,3-d]pyrimidin-2(1H)-one], the IC50 was under 100 nM in the experiment on HCT116 MTAP-/- (setting [2]), over 1000 nM with HCT116 MTAP+/+, under 100 nM in experiment [1] (setting [3]) and under 100 nM on MAT2A homodimer.
